In US4900538A (Suntory Limited, priority 1982, dated 1990):
“And” between values parts separate entries of the source, which are not always exact repeats. Equal values may be shown once. Read-outs that look alike come from different tables or passages of the source.

Tests used:
[1] = test system: Escherichia coli K 12 envA uvr B (λ), GY 5027; format: cell-based; conditions: for Inactivation of mutagenicity (phage induction activity) of adriamycin, dose-response: absence of S9 mix, molar ratios to adriamycin 1:1 to 30:1 (FIG. 12)
Description: Inductest III (P. Morean, A. Bailone and R. Devoret: Proc. Natl. Acad. Sci. U.S.A., Vol. 73, No. 10, 3700-3704, '76). This method is a test for mutagenicity using prophage λ induction as an index. The strains used in this method were Escherichia coli K 12 envA uvr B (λ), GY 5027 and as λ indicator GY 4015 (Amp R).
This method uses phage induction activity as an index.
Potassium sulfite was used as a sulfite compound and potassium pyrosulfite which produces 2 equivalents of hydrogensulfite ion when dissolved in water was used as acid sulfite.
Dithionite produces two equivalents of hydrogensulfite ions when dissolved in water.
The molar ratio of sodium dithionite to daunomycin was 15:1. In FIGS. 13 and 14 the symbol indicates daunomycin alone and the symbol indicates daunomycin plus sodium dithionite.
Sodium sulfite was used as a sulfite at a molar ratio of sodium sulfite to daunomycin of 30:1.

[2] = test system: Salmonella typhimurium TA 98; assay: Ames test (Preincubation Method): mutagenicity and its inactivation by sulfite compounds; conditions: FIGS. 1, 6 and 7 (also FIGS. 3 and 4, Inductest III)
Method: This method is based on the Ames test (B. N. Ames, J. Mac Gann and E. Yamasaki: Mutation Research, Vol. 31, 347-364, '75). […] The strain used in this method was histidine requisite Salmonella typhimurium TA 100 and TA 98 (hereinafter referred to as St TA 100 and St TA 98).
At the same time, predetermined amounts of sodium sulfite, sodium hydrogensulfite (sodium acid sulfite), sodium pyrosulfite, sodium dithionite or sulphurous anhydride were dissolved in aseptic distilled water.
To 100 μl of each of the samples prepared in the above (2), 500 μl of 100 mM sodium phosphate buffer (pH 7.4) and 100 μl of a culture of St TA 100 or St TA 98 were added. Each mixture was shaken for 20 minutes at 37° C., added to 2.5 ml of a soft agar solution and spread on 0.1% glucose agar plate which had been supplemented with 0.1 μM per plate of histidine in order to create several divisions. After incubation at 37° C. for 48 hours, the number of colonies on the plate was counted as revertants. This method uses nutrient requisiteness of the above strains as an index.

male CD-1 (ICR) mice = assay: Acute toxicity in mice (survival days)
Method: Male CD-1 (ICR) mice (12 weeks old) were used as test animals. The temperature in the animal room was maintained at 23° C. (±3° C.) and relative humidity was kept at 30-70%. Artificial lighting was carried out by illumination and darkening at successive intervals of 12 hours.
The test substances were dissolved in distilled water and intraperitoneally administered to the animals at a dose of 10 ml/kg.
The above t-test was carried out as follows.

DNA = conditions: cited from earlier work
L1210 cells = assay: In vivo carcinostatic activity against transplanted L1210 cells (ILS, survivors); conditions: i.p.
Method: Male BDF1 mice (57BL/6XDBA/2) weighing 19-20 g were used in this experiment. Feed (CA-1, Nihon Kurea Kabushiki Kaisha, Meguro-ku, Tokyo, Japan) and water were freely taken. 1×10^5 L 1210 cells were intraperitoneally transplanted to a mouse in each group of 6 mice. Test substances were intraperitoneally administered to mice 24 hours after i.p. injection of L1210 cells and thereafter one time each day for 5 days. Survival days of all of the mice were recorded and carcinostatic effects of the test compounds were measured by using index of life spread (ILS %) to the control group.

[3] = test system: strains used (Salmonella typhimurium, Escherichia coli); assay: Growth / survival of the strains used in the mutagenicity tests; format: cell-based; conditions: explains apparent reduction of mutagenicity at high levels
[4] = Japanese Patent application No. 144272/81; cited from earlier work

Structure (SMILES): O=S([O-])S(=O)(=O)[O-].[K+].[K+] [acid sulfite, potassium pyrosulfite]
- Inactivation of mutagenicity (phage induction activity) of adriamycin, dose-response [1]: the more remarkably the mutagenicity of adriamycin was inactivated

Structure (SMILES): COc1cccc2c1C(=O)c1c(O)c3c(c(O)c1C2=O)C[C@@](O)(C(=O)CO)C[C@@H]3O[C@H]1C[C@H](N)[C@H](O)[C@H](C)O1 [adriamycin]
- Apparent change of mutagenicity at high levels of the antibiotic per se [2]: appear to be reduced at high levels
- Survival days, individual mouse (male CD-1 (ICR) mice; experiment (1): adriamycin 20 mg/kg i.p. daily for 3 days, no hydrogensulfite, mice No. 1-12 in order): 0 days (8×) and 1 days (4×)
- Survival days, mean (x) (male CD-1 (ICR) mice; experiment (1): adriamycin 20 mg/kg i.p. daily for 3 days, no hydrogensulfite, n=12, s 0.5778): 0.3333 days
- Survival days, individual mouse (male CD-1 (ICR) mice; experiment (2): adriamycin alone 20 mg/kg i.p., mice No. 1-11 in order, listed as ADM): 14 days and 7 days and 6 days and 5 days and 4 days
- Survival days, mean (x) (male CD-1 (ICR) mice; experiment (2): adriamycin alone 20 mg/kg i.p., n=11, s 2.747): 7.545 days
- Base pairs of DNA reacting per one molecule (intercalation) (DNA): 3 base pairs
- Survivors (on Day 60) (L1210 cells; adriamycin 1 mg/kg/day × 5, sodium hydrogensulfite 0): 1 and 1/6
- Survivors (on Day 60) (L1210 cells; adriamycin 3 mg/kg/day × 5, sodium hydrogensulfite 0): zero and 0/6

Structure (SMILES): COc1cccc2c1C(=O)c1c(O)c3c(c(O)c1C2=O)C[C@@](O)(C(C)=O)C[C@@H]3O[C@H]1C[C@H](N)[C@H](O)[C@H](C)O1 [daunomycin]
- Apparent change of mutagenicity at high levels of the antibiotic per se [2]: appear to be reduced at high levels
- Cellular toxicity [3]: have cellular toxicity
- Base pairs of DNA reacting per one molecule (intercalation) (DNA): 3 base pairs

Structure (SMILES): O=S(O)O [hydrogensulfite ion]
- Hydrogensulfite ion in molar concentration necessary for complete inactivation of mutagenicity of adriamycin ([1]; absence of S9 mix (FIG. 5)): at least ten

Structure (SMILES): O=S([O-])S(=O)[O-].[Na+].[Na+] [sodium dithionite]
- Inactivation of mutagenicity of daunomycin (phage induction) ([1]; molar ratio dithionite to daunomycin 15:1, independently of S9 mix (FIGS. 13 and 14)): completely inactivated

Structure (SMILES): O=S([O-])O.[Na+] [sodium hydrogensulfite]
- Reduction of toxicity of adriamycin (t-test of survival days) (male CD-1 (ICR) mice; experiment (1): adriamycin 20 mg/kg for 3 days, sodium hydrogensulfite 53.8 mg/kg (FIG. 10)): significantly reduced toxicity at a confidence level of 90%

Structure (SMILES): O=S([O-])[O-].[Na+].[Na+] [sodium sulfite]
- Inactivation of mutagenicity of daunomycin (phage induction) ([1]; molar ratio sodium sulfite to daunomycin 30:1, absence and presence of S9 mix (FIGS. 15 and 16)): completely inactivated

Structure (SMILES): O=S(O)O [sulfite ion]
- Inactivation of mutagenicities of coffee, tobacco tar and spirits [4]: inactivates mutagenicities

Structure (SMILES): O=S([O-])[O-].[K+].[K+] [sulfite, potassium sulfite]
- Inactivation of mutagenicity (phage induction activity) of adriamycin, dose-response [1]: the more remarkably the mutagenicity of adriamycin was inactivated
